# ChEMBL document CHEMBL2413072, “Synthesis and in vitro anticancer studies of novel C-2 arylidene congeners of lantadenes” (2013)
# Columns and labels:
# Format in all cases: functional
# [1] = Growth inhibition of human NCI-ADR-RES cells assessed as cell growth at 10^-6 M by sulforhodamine B assay; conditions: read-out: Activity
# NCI-H322M [2] = assay: Growth inhibition of human NCI-H322M cells assessed as cell growth at 10^-7 M by sulforhodamine B assay; conditions: read-out: Activity
# HOP-92 = assay: Growth inhibition of human HOP92 cells assessed as cell growth at 10^-8 M by sulforhodamine B assay; conditions: read-out: Activity
# T47D = assay: Growth inhibition of human T47D cells assessed as cell growth at 10^-8 M by sulforhodamine B assay; conditions: read-out: Activity
# CAKI-1 = assay: Growth inhibition of human CAKI-1 cells by sulforhodamine B assay
# MDA-MB-468 [3] = assay: Growth inhibition of human MDA-MB-468 cells by sulforhodamine B assay
# ACHN = assay: Growth inhibition of human ACHN cells by sulforhodamine B assay
# OVCAR-3 = assay: Growth inhibition of human OVCAR3 cells assessed as cell growth at 10^-6 M by sulforhodamine B assay; conditions: read-out: Activity
# SK-MEL-28 = assay: Growth inhibition of human SK-MEL-28 cells assessed as cell growth at 10^-6 M by sulforhodamine B assay; conditions: read-out: Activity
# UO-31 = assay: Growth inhibition of human UO31 cells assessed as cell growth at 10^-4 M by sulforhodamine B assay; conditions: read-out: Activity
# SW-620 [4] = assay: Growth inhibition of human SW620 cells assessed as cell growth at 10^-4 M by sulforhodamine B assay; conditions: read-out: Activity
# 786-0 = assay: Growth inhibition of human 786-0 cells by sulforhodamine B assay
# PC-3 = assay: Growth inhibition of human PC3 cells assessed as cell growth at 10^-7 M by sulforhodamine B assay; conditions: read-out: Activity
# COLO 205 = assay: Growth inhibition of human COLO205 cells assessed as cell growth at 10^-4 M by sulforhodamine B assay; conditions: read-out: Activity
# NCI-H322M [5] = assay: Growth inhibition of human NCI-H322M cells by sulforhodamine B assay
# MDA-MB-468 [6] = assay: Growth inhibition of human MDA-MB-468 cells assessed as cell growth at 10^-7 M by sulforhodamine B assay; conditions: read-out: Activity
# BT-549 [7] = assay: Growth inhibition of human BT549 cells assessed as cell growth at 10^-7 M by sulforhodamine B assay; conditions: read-out: Activity
# MDA-MB-435 [8] = assay: Growth inhibition of human MDA-MB-435 cells assessed as cell growth at 10^-7 M by sulforhodamine B assay; conditions: read-out: Activity
# SF-539 = assay: Growth inhibition of human SF539 cells assessed as cell growth at 10^-4 M by sulforhodamine B assay; conditions: read-out: Activity
# A549 = assay: Growth inhibition of human A549/ATCC cells assessed as cell growth at 10^-6 M by sulforhodamine B assay; conditions: read-out: Activity
# LOX IMVI [9] = assay: Growth inhibition of human LOXIMVI cells assessed as cell growth at 10^-4 M by sulforhodamine B assay; conditions: read-out: Activity
# KM12 = assay: Growth inhibition of human KM12 cells assessed as cell growth at 10^-8 M by sulforhodamine B assay; conditions: read-out: Activity
# [10] = Growth inhibition of human NCI-ADR-RES cells by sulforhodamine B assay
# SW-620 [11] = assay: Growth inhibition of human SW620 cells assessed as cell growth at 10^-6 M by sulforhodamine B assay; conditions: read-out: Activity
# BT-549 [12] = assay: Growth inhibition of human BT549 cells by sulforhodamine B assay
# [13] = Growth inhibition of human NCI-ADR-RES cells assessed as cell growth at 10^-7 M by sulforhodamine B assay; conditions: read-out: Activity
# Malme-3M = assay: Growth inhibition of human MALME-3M cells assessed as cell growth at 10^-4 M by sulforhodamine B assay; conditions: read-out: Activity
# SK-MEL-2 [14] = assay: Growth inhibition of human SK-MEL-2 cells assessed as cell growth at 10^-7 M by sulforhodamine B assay; conditions: read-out: Activity
# HT-29 = assay: Growth inhibition of human HT-29 cells by sulforhodamine B assay
# LOX IMVI [15] = assay: Growth inhibition of human LOXIMVI cells assessed as cell growth at 10^-8 M by sulforhodamine B assay; conditions: read-out: Activity
# A498 = assay: Growth inhibition of human A498 cells assessed as cell growth at 10^-8 M by sulforhodamine B assay; conditions: read-out: Activity
# MDA-MB-435 [16] = assay: Growth inhibition of human MDA-MB-435 cells assessed as cell growth at 10^-8 M by sulforhodamine B assay; conditions: read-out: Activity
# SK-MEL-2 [17] = assay: Growth inhibition of human SK-MEL-2 cells assessed as cell growth at 10^-6 M by sulforhodamine B assay; conditions: read-out: Activity
# OVCAR-5 = assay: Growth inhibition of human OVCAR5 cells by sulforhodamine B assay
# M14 = assay: Growth inhibition of human M14 cells assessed as cell growth at 10^-8 M by sulforhodamine B assay; conditions: read-out: Activity
# SW-620 [18] = assay: Growth inhibition of human SW620 cells by sulforhodamine B assay
# OVCAR-8 = assay: Growth inhibition of human OVCAR8 cells assessed as cell growth at 10^-4 M by sulforhodamine B assay; conditions: read-out: Activity
# SR = assay: Growth inhibition of human SR cells assessed as cell growth at 10^-7 M by sulforhodamine B assay; conditions: read-out: Activity
# [19] = read-out: LC50 (the source's name)
# [20] = read-out: pLC50 (the source's name) (converted)
smiles,measurement,setting,value
C/C=C(/C)C(=O)O[C@@H]1CC(C)(C)C[C@H]2C3=CC[C@@H]4[C@@]5(C)CCC(=O)C(C)(C)[C@@H]5CC[C@@]4(C)[C@]3(C)CC[C@@]12C(=O)O [LANTADENE A],growth at 1 µM,[1],97%
same,growth at 0.1 µM,NCI-H322M [2],97%
same,growth at 0.01 µM,HOP-92,87%
same,growth at 0.01 µM,T47D,99%
same,GI50,CAKI-1; read-out: GI50,3.93 µM
same,CC50,CAKI-1; [19],> 100 µM
same,TGI,CAKI-1; read-out: TGI,> 100 µM
same,GI50,CAKI-1; read-out: pGI50 (converted),3.89 µM
same,CC50,CAKI-1; [20],> 100 µM
same,TGI,CAKI-1; read-out: pTGI (converted),> 100 µM
same,GI50,MDA-MB-468 [3]; read-out: GI50,2.58 µM
same,CC50,MDA-MB-468 [3]; [19],> 100 µM
same,TGI,MDA-MB-468 [3]; read-out: TGI,> 100 µM
same,GI50,MDA-MB-468 [3]; read-out: pGI50 (converted),2.57 µM
same,CC50,MDA-MB-468 [3]; [20],> 100 µM
same,TGI,MDA-MB-468 [3]; read-out: pTGI (converted),> 100 µM
same,GI50,ACHN; read-out: GI50,4.94 µM
same,CC50,ACHN; [19],> 100 µM
same,TGI,ACHN; read-out: TGI,> 100 µM
same,GI50,ACHN; read-out: pGI50 (converted),4.9 µM
same,CC50,ACHN; [20],> 100 µM
same,TGI,ACHN; read-out: pTGI (converted),> 100 µM
same,growth at 1 µM,OVCAR-3,105%
same,growth at 1 µM,SK-MEL-28,95%
same,growth at 100 µM,UO-31,6%
same,growth at 100 µM,SW-620 [4],22%
same,GI50,786-0; read-out: GI50,3.47 µM
same,CC50,786-0; [19],> 100 µM
same,TGI,786-0; read-out: TGI,> 100 µM
same,GI50,786-0; read-out: pGI50 (converted),3.47 µM
same,CC50,786-0; [20],> 100 µM
same,TGI,786-0; read-out: pTGI (converted),> 100 µM
same,growth at 0.1 µM,PC-3,83%
same,growth at 100 µM,COLO 205,-51%
same,GI50,NCI-H322M [5]; read-out: GI50,3.94 µM
same,LC50 (50% lethal concentration),NCI-H322M [5]; read-out: LC50,> 100 µM
same,TGI,NCI-H322M [5]; read-out: TGI,> 100 µM
same,GI50,NCI-H322M [5]; read-out: pGI50 (converted),3.98 µM
same,LC50 (50% lethal concentration),NCI-H322M [5]; read-out: pLC50 (converted),> 100 µM
same,TGI,NCI-H322M [5]; read-out: pTGI (converted),> 100 µM
same,growth at 0.1 µM,MDA-MB-468 [6],83%
same,growth at 0.1 µM,BT-549 [7],95%
same,growth at 0.1 µM,MDA-MB-435 [8],95%
same,growth at 100 µM,SF-539,17%
same,growth at 1 µM,A549,80%
same,growth at 100 µM,LOX IMVI [9],33%
same,growth at 0.01 µM,KM12,103%
same,GI50,[10]; read-out: GI50,5.12 µM
same,CC50,[10]; [19],> 100 µM
same,TGI,[10]; read-out: TGI,> 100 µM
same,GI50,[10]; read-out: pGI50 (converted),5.13 µM
same,CC50,[10]; [20],> 100 µM
same,TGI,[10]; read-out: pTGI (converted),> 100 µM
same,growth at 1 µM,SW-620 [11],90%
same,GI50,BT-549 [12]; read-out: GI50,4.73 µM
same,CC50,BT-549 [12]; [19],> 100 µM
same,TGI,BT-549 [12]; read-out: TGI,> 100 µM
same,GI50,BT-549 [12]; read-out: pGI50 (converted),4.68 µM
same,CC50,BT-549 [12]; [20],> 100 µM
same,TGI,BT-549 [12]; read-out: pTGI (converted),> 100 µM
same,growth at 0.1 µM,[13],104%
same,growth at 100 µM,Malme-3M,17%
same,growth at 0.1 µM,SK-MEL-2 [14],115%
same,GI50,HT-29; read-out: GI50,4.32 µM
same,LC50 (50% cell kill),HT-29; read-out: LC50,> 100 µM
same,TGI,HT-29; read-out: TGI,> 100 µM
same,GI50,HT-29; read-out: pGI50 (converted),4.37 µM
same,LC50 (50% cell kill),HT-29; read-out: pLC50 (converted),> 100 µM
same,TGI,HT-29; read-out: pTGI (converted),> 100 µM
same,growth at 0.01 µM,LOX IMVI [15],96%
same,growth at 0.01 µM,A498,83%
same,growth at 0.01 µM,MDA-MB-435 [16],96%
same,growth at 1 µM,SK-MEL-2 [17],108%
same,GI50,OVCAR-5; read-out: GI50,18.3 µM
same,CC50,OVCAR-5; [19],> 100 µM
same,TGI,OVCAR-5; read-out: TGI,> 100 µM
same,GI50,OVCAR-5; read-out: pGI50 (converted),18.2 µM
same,CC50,OVCAR-5; [20],> 100 µM
same,TGI,OVCAR-5; read-out: pTGI (converted),> 100 µM
same,growth at 0.01 µM,M14,96%
same,GI50,SW-620 [18]; read-out: GI50,4.48 µM
same,CC50,SW-620 [18]; [19],> 100 µM
same,TGI,SW-620 [18]; read-out: TGI,> 100 µM
same,GI50,SW-620 [18]; read-out: pGI50 (converted),4.47 µM
same,CC50,SW-620 [18]; [20],> 100 µM
same,TGI,SW-620 [18]; read-out: pTGI (converted),> 100 µM
same,growth at 100 µM,OVCAR-8,24%
same,growth at 0.1 µM,SR,79%
